Reference: US20230040081A1 (priority 2019, published 2023)

Columns and labels:
viral RNA polymerase [1] = assay: Potential inhibitors: Results Hit validation; type: biochemical; conditions: test concentration not given
Description: (§1) Compound stocks were prepared at a concentration of 1 mM in 65% DMSO, at a volume of 5 μL each.

viral RNA polymerase [2] = assay: Potential inhibitors: Results Screen; type: biochemical; conditions: test concentration not given
Description: as §1

CC1=C[C@H](C/C(C)=C/COc2c3occc3cc3ccc(=O)oc23)OC1=O [AD153413-25_H9]
Results Hit validation Median (% inhibition) (viral RNA polymerase [1]): 51.1 % inhibition | Results Screen Median Screen (% inhibition) (viral RNA polymerase [2]): 79.1 % inhibition

COc1cc(-c2cc(=O)c3c(O)c(C4OC(CO)C(O)C(OC5OC(CO)C(O)C(O)C5OC5OC(CO)C(O)C(O)C5O)C4OC(=O)/C=C/c4ccc(O)c(O)c4)c(O)cc3o2)ccc1O (stereo not shown) [AD153413-17_A4]
Results Hit validation Median (% inhibition) (viral RNA polymerase [1]): 52.3 % inhibition | Results Screen Median Screen (% inhibition) (viral RNA polymerase [2]): 69.6 % inhibition

CC(=O)OC1CC2C(COC(=O)CC(C)C)=CO[C@H](OC(=O)CC(C)C)C2C12CO2 (stereo partly shown) [AD153413-09_A3]
Results Hit validation Median (% inhibition) (viral RNA polymerase [1]): 55.9 % inhibition | Results Screen Median Screen (% inhibition) (viral RNA polymerase [2]): 89.7 % inhibition

CCC(C)C(=O)OC1CC(C)C=C2C=CC(C)C(CCC(O)CC(O)CC(=O)O)C21 (stereo not shown) [AD153413-16_G9]
Results Hit validation Median (% inhibition) (viral RNA polymerase [1]): 64.7 % inhibition | Results Screen Median Screen (% inhibition) (viral RNA polymerase [2]): 87.4 % inhibition

CC1CCC2(C)CCC3(C)C(=CCC4C5(C)CCC(O)C(C)(C(=O)O)C5CCC43C)C2C1C (stereo not shown) [AD153413-25_A7]
Results Hit validation Median (% inhibition) (viral RNA polymerase [1]): 70 % inhibition | Results Screen Median Screen (% inhibition) (viral RNA polymerase [2]): 85.9 % inhibition

COC(=O)C1=COC(OC2O[C@@H](CO)[C@H](O)[C@@H](O)[C@@H]2O)[C@H]2C1C=CC21C=C(C(C)CC(=O)/C=C/c2ccc(O)cc2)C(=O)O1 (stereo partly shown) [AD153413-23_G3]
Results Hit validation Median (% inhibition) (viral RNA polymerase [1]): 61.7 % inhibition | Results Screen Median Screen (% inhibition) (viral RNA polymerase [2]): 60.5 % inhibition

CC1(C)C2CC[C@]3(C)C(C(=O)C=C4[C@H]5C[C@@](C)(C(=O)O)CC[C@]5(C)CC[C@]43C)[C@@]2(C)CC[C@@H]1O (stereo partly shown) [AD153413-01_B11]
Results Hit validation Median (% inhibition) (viral RNA polymerase [1]): 72.1 % inhibition | Results Screen Median Screen (% inhibition) (viral RNA polymerase [2]): 75.6 % inhibition

COc1ccc(CCC(=O)O)cc1 [AD153413-03_F11]
Results Hit validation Median (% inhibition) (viral RNA polymerase [1]): 41.8 % inhibition | Results Screen Median Screen (% inhibition) (viral RNA polymerase [2]): 70.6 % inhibition

C=C(/C=C/[C@@H](CCC(=O)O)C(C)C)CCC(C)=O [AD153413-08_B4]
Results Hit validation Median (% inhibition) (viral RNA polymerase [1]): 41.9 % inhibition | Results Screen Median Screen (% inhibition) (viral RNA polymerase [2]): 73.6 % inhibition

COc1cc(OC)cc([C@@H](C)C(=O)c2ccc(O)cc2O)c1 [AD153413-09_A6]
Results Hit validation Median (% inhibition) (viral RNA polymerase [1]): 64.2 % inhibition | Results Screen Median Screen (% inhibition) (viral RNA polymerase [2]): 81.1 % inhibition

CCCCC(C)C(=O)C(CC(C)CCCCCCC(O)CC(O)C(C)NC(C)=O)OC(=O)CC(CC(=O)O)C(=O)O (stereo not shown) [AD153413-12_D11]
Results Hit validation Median (% inhibition) (viral RNA polymerase [1]): 50.1 % inhibition | Results Screen Median Screen (% inhibition) (viral RNA polymerase [2]): 73.7 % inhibition

CC[C@H](C)/C=C(C)/C=C/C(=O)Cc1cc(O)c(C)c(O)c1C=O [AD153413-17_A5]
Results Hit validation Median (% inhibition) (viral RNA polymerase [1]): 70.9 % inhibition | Results Screen Median Screen (% inhibition) (viral RNA polymerase [2]): 71 % inhibition

COc1ccc2c(c1)OC1c3ccc(OC)cc3OCC21 (stereo not shown) [AD153413-01_A10]
Results Hit validation Median (% inhibition) (viral RNA polymerase [1]): 77.6 % inhibition | Results Screen Median Screen (% inhibition) (viral RNA polymerase [2]): 84.5 % inhibition

NC(=O)c1c[nH]c(Cc2ccccc2)cc1=O [AD153413-06_B9]
Results Hit validation Median (% inhibition) (viral RNA polymerase [1]): 42.9 % inhibition | Results Screen Median Screen (% inhibition) (viral RNA polymerase [2]): 80 % inhibition

CC1(C)CCC[C@@]2(C)[C@H]1[C@H](O)C=C1COC(=O)[C@]12O (racemic) [AD153413-10_B3]
Results Hit validation Median (% inhibition) (viral RNA polymerase [1]): 43.3 % inhibition | Results Screen Median Screen (% inhibition) (viral RNA polymerase [2]): 60.9 % inhibition

O=C(OC[C@@H]1O[C@H](Oc2ccc(O)cc2CO)[C@@H](O)[C@H](O)[C@H]1O)c1ccccc1 (racemic) [AD153413-11_H9]
Results Hit validation Median (% inhibition) (viral RNA polymerase [1]): 54.9 % inhibition | Results Screen Median Screen (% inhibition) (viral RNA polymerase [2]): 60.5 % inhibition

CC(C)C1NC(=O)C2CCCN2C1=O (stereo not shown) [AD153413-12_C11]
Results Hit validation Median (% inhibition) (viral RNA polymerase [1]): 44.2 % inhibition | Results Screen Median Screen (% inhibition) (viral RNA polymerase [2]): 61.7 % inhibition

COc1cc(C)cc(C(=O)O)c1C1=C(O)C(=O)c2c(O)cccc2C1=O [AD153413-06_A10]
Results Hit validation Median (% inhibition) (viral RNA polymerase [1]): 64.1 % inhibition | Results Screen Median Screen (% inhibition) (viral RNA polymerase [2]): 72.4 % inhibition

O=C(O)/C=C/c1ccccc1O[C@H]1O[C@@H](CO)[C@H](O)[C@@H](O)[C@@H]1O [AD153413-02_F8]
Results Hit validation Median (% inhibition) (viral RNA polymerase [1]): 44 % inhibition | Results Screen Median Screen (% inhibition) (viral RNA polymerase [2]): 86.7 % inhibition

CCC(C)C(=O)O[C@H]1CCC=C2C=C[C@H](C)[C@H](CC[C@@H](O)C[C@@H](O)CC(=O)O)[C@H]21 (stereo partly shown) [AD153413-09_E2]
Results Hit validation Median (% inhibition) (viral RNA polymerase [1]): 60.5 % inhibition | Results Screen Median Screen (% inhibition) (viral RNA polymerase [2]): 90.3 % inhibition

COc1cc(-c2oc3cc(O[C@H]4O[C@@H](CO)[C@H](O)[C@@H](O)[C@@H]4O)c(OC)c(O)c3c(=O)c2OC)ccc1O [AD153413-17_A6]
Results Hit validation Median (% inhibition) (viral RNA polymerase [1]): 62.2 % inhibition | Results Screen Median Screen (% inhibition) (viral RNA polymerase [2]): 77.1 % inhibition

CC(=O)O[C@H]1C[C@@H](O)[C@]23COC(O)[C@@]1(C)C2C[C@H](O)[C@@]1(C)C3C(=O)[C@@H](OC(C)=O)[C@]2(C)[C@@H](c3ccoc3)C[C@@H]3O[C@@]321 (stereo partly shown) [AD153413-19_D3]
Results Hit validation Median (% inhibition) (viral RNA polymerase [1]): 41.6 % inhibition | Results Screen Median Screen (% inhibition) (viral RNA polymerase [2]): 71.8 % inhibition

Oc1cc(O)cc(CCC/C=C\CCCCCCCCCc2cc(O)cc(O)c2)c1 [AD153413-03_H2]
Results Hit validation Median (% inhibition) (viral RNA polymerase [1]): 48.9 % inhibition | Results Screen Median Screen (% inhibition) (viral RNA polymerase [2]): 73.1 % inhibition

O=C(CCc1ccc(O)cc1)CC(CCc1ccc(O)cc1)OC1O[C@@H](COC(=O)/C=C/c2ccc(O)cc2)[C@H](O)[C@@H](O)[C@@H]1O (stereo partly shown) [AD153413-07_H11]
Results Hit validation Median (% inhibition) (viral RNA polymerase [1]): 45.2 % inhibition | Results Screen Median Screen (% inhibition) (viral RNA polymerase [2]): 70 % inhibition

CC(O)CC1CCC(C(C)C(=O)OC(C)CC2CCC(C(C)C(=O)O)O2)O1 (stereo not shown) [AD153413-16_A3]
Results Hit validation Median (% inhibition) (viral RNA polymerase [1]): 44.5 % inhibition | Results Screen Median Screen (% inhibition) (viral RNA polymerase [2]): 83 % inhibition

COc1cc(C2c3c(cc(OC)c(O)c3O)CC(CO)C2CO[C@H]2O[C@@H](C(=O)O)[C@H](O)[C@@H](O)[C@@H]2O)cc(OC)c1O (stereo partly shown) [AD153413-11_A11]
Results Hit validation Median (% inhibition) (viral RNA polymerase [1]): 57.1 % inhibition | Results Screen Median Screen (% inhibition) (viral RNA polymerase [2]): 83 % inhibition

COc1cc(O)c2c(c1)C(O)C(C)OC2=O (stereo not shown) [AD153413-16_B4]
Results Hit validation Median (% inhibition) (viral RNA polymerase [1]): 53.6 % inhibition | Results Screen Median Screen (% inhibition) (viral RNA polymerase [2]): 72.5 % inhibition

CCCCCCCC/C(=C/CC(=O)O)C(=O)O [AD153413-16_C3]
Results Hit validation Median (% inhibition) (viral RNA polymerase [1]): 40.5 % inhibition | Results Screen Median Screen (% inhibition) (viral RNA polymerase [2]): 84.3 % inhibition

O=C1c2ccc(O)cc2O[C@H](c2ccc(O)c(O)c2)[C@H]1O [AD153413-21_A6]
Results Hit validation Median (% inhibition) (viral RNA polymerase [1]): 54.7 % inhibition | Results Screen Median Screen (% inhibition) (viral RNA polymerase [2]): 68.8 % inhibition
